Measurements reported in patent US20220289753A1, “SHP2 INHIBITORS” (IRBM S.P.A., priority 2019, published 2022).
pIC50: −log10 of the molar value.

Legend:
[1] = biological target: T1, SHP-2 enzyme (Met1-Leu525) (Homo sapiens, UniProt Q06124); assay: SHP2 inhibition enzymatic assay (DiFMUP substrate, IRS1 peptide activation); assay type: biochemical; conditions: SHP2 wt; activated by 500 nM IRS1 peptide; 75 μM DiFMUP substrate
T1 construct: synthetized by Origene, Met1-Leu525, cat #TP750155; purchased Origene TP750155
T1 sequence (Q06124 1-525): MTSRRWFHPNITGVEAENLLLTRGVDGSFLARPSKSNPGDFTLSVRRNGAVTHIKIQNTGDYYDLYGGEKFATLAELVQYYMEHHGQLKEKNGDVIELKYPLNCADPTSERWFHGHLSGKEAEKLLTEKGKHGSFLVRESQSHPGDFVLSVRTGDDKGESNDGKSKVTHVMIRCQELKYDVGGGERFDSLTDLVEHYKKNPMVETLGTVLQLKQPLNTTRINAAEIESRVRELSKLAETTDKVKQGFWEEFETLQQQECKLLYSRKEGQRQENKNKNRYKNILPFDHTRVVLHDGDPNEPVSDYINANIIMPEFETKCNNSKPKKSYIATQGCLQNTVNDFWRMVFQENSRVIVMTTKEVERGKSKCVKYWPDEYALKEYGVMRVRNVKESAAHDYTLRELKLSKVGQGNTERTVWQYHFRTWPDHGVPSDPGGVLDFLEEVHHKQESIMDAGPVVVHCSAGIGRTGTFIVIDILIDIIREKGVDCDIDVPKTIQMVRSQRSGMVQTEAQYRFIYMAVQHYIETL
In short: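 SHP-2 (Met1-Leu525, 0.5 nM final) preincubated 30 min with compounds and IRS1 activating peptide in HEPES pH 7.2 buffer with NaCl, KCl, EDTA, tween-20, 5 mM DTT. DiFMUP then added for 30 min at room temperature and fluorescence read. IC50 from four-parameter logistic fit of % inhibition.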

[2] = system: ERK phosphorylation in KYSE-520 cells; assay: Phospho-ERK cellular assay (Advanced phospho-ERK1/2 (Thr202/Tyr204) TR-FRET kit); assay type: cell-based; conditions: Homo sapiens, KYSE-520, 2 h, KYSE-520 cells, 2 h at 37° C., TR-FRET; read-out: pERK IC50
In short: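 KYSE-520 cells were treated 2 h at 37° C with serially diluted compounds, then lysed. Phospho-ERK1/2 (Thr202/Tyr204) was detected by TR-FRET after overnight antibody incubation at room temperature. IC50 came from a four-parameter logistic fit; lower signal reflects greater SHP2 inhibition.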

| Structure (SMILES) | pIC50 [1] | pIC50 [2] |
| --- | --- | --- |
| N[C@@H]1c2cccnc2CC12CCN(c1nc3nc(Sc4ccnc(Cl)c4C(F)(F)F)cnc3[nH]1)CC2 [Example 262, (S)-1′-(5-((2-chloro-3-(trifluoromethyl)pyridin-4-yl)thio)-1H-imidazo[4,5-b]pyrazin-2-yl)-5,7-dihydrospiro[cyclopenta[b]pyridine-6,4′-piperidin]-5-amine] | > 6.30 | > 6.00 |
| CNc1nccc(Sc2cnc3[nH]c(N4CCC5(CC4)Cc4ncccc4[C@H]5N)nc3n2)c1C(F)(F)F [Example 264, (5S)-1′-[5-[2-(methylamino)-3-(trifluoromethyl)pyridin-4-yl]sulfanyl-1H-imidazo[4,5-b]pyrazin-2-yl]spiro[5,7-dihydrocyclopenta[b]pyridine-6,4′-piperidine]-5-amine] | > 6.30 | > 6.00 |
| Nc1nccc(Sc2cnc3[nH]c(N4CCC5(CC4)Cc4ccccc4[C@H]5N)cc3n2)c1Cl [Example 265, (S)-1′-(2-((2-amino-3-chloropyridin-4-yl)thio)-5H-pyrrolo[2,3-b]pyrazin-6-yl)-1,3-dihydrospiro[indene-2,4′-piperidin]-1-amine] | > 6.30 | 5.30 to 6.00 |
| Nc1cc(Sc2cnc3[nH]c(N4CCC5(CC4)Cc4ccccc4[C@H]5N)nc3n2)c(Cl)c(Cl)n1 [Example 266, (S)-1′-(5-((6-amino-2,3-dichloropyridin-4-yl)thio)-1H-imidazo[4,5-b]pyrazin-2-yl)-1,3-dihydrospiro[indene-2,4′-piperidin]-1-amine] | > 6.30 | < 5.30 |
| Nc1nccc(Sc2cnc3[nH]c(N4CCC5(CC4)Cc4ncccc4[C@H]5N)cc3n2)c1Cl [Example 267, (S)-1′-(2-((2-amino-3-chloropyridin-4-yl)thio)-5H-pyrrolo[2,3-b]pyrazin-6-yl)-5,7-dihydrospiro[cyclopenta[b]pyridine-6,4′-piperidin]-5-amine] | > 6.30 | > 6.00 |
| C[C@@H]1OCC2(CCN(c3cc4nc(Sc5ccnc(N)c5Cl)cnc4[nH]3)CC2)[C@@H]1N [Example 268, (3S,4S)-8-(2-((2-amino-3-chloropyridin-4-yl)thio)-5H-pyrrolo[2,3-b]pyrazin-6-yl)-3-methyl-2-oxa-8-azaspiro[4.5]decan-4-amine] | > 6.30 | > 6.00 |
| COc1nc(N)ccc1Sc1cnc2[nH]c(N3CCC4(CC3)Cc3ccccc3[C@H]4N)nc2n1 [Example 269, (S)-1′-(5-((6-amino-2-methoxypyridin-3-yl)thio)-1H-imidazo[4,5-b]pyrazin-2-yl)-1,3-dihydrospiro[indene-2,4′-piperidin]-1-amine] | > 6.30 | > 6.00 |

Second part, the compound after the results:

| pIC50 [1] | pIC50 [2] | Structure (SMILES) |
| --- | --- | --- |
| > 6.30 | > 6.00 | N[C@@H]1c2ccccc2CC12CCN(c1nc3nc(Sc4cccc(Cl)c4Cl)c(Cl)nc3[nH]1)CC2 [Example 259, (S)-1′-(6-chloro-5-((2,3-dichlorophenyl)thio)-1H-imidazo[4,5-b]pyrazin-2-yl)-1,3-dihydrospiro[indene-2,4′-piperidin]-1-amine] |
| > 6.30 | > 6.00 | N#Cc1ccc2c(c1)[C@H](N)C1(CCN(c3nc4nc(Sc5ccnc(N)c5Cl)cnc4[nH]3)CC1)C2 [Example 260, (R)-1-amino-1′-(5-((2-amino-3-chloropyridin-4-yl)thio)-1H-imidazo[4,5-b]pyrazin-2-yl)-1,3-dihydrospiro[indene-2,4′-piperidine]-6-carbonitrile] |
| > 6.30 | > 6.00 | Cn1ncc2nccc(Sc3cnc4[nH]c(N5CCC6(CC5)Cc5ccccc5[C@H]6N)nc4n3)c21 [Example 261, (S)-1′-(5-((1-methyl-1H-pyrazolo[4,3-b]pyridin-7-yl)thio)-1H-imidazo[4,5-b]pyrazin-2-yl)-1,3-dihydrospiro[indene-2,4′-piperidin]-1-amine] |
